According to patent publication EP2561858B1, “A composition for activating hair follicle stem cells to stimulate hair growth” (LABO Cosprophar AG, priority 2011, dated 2013):

Key:
[1] = molecular target: T1, 5-alpha reductase activity I (Homo sapiens, UniProt P18405); test: 5-alpha reductase inhibition in skin fibroblasts (marked Testosterone to DHT, TLC), type I; format: cell-based; conditions: 100µM, 1 hour at 37°C preincubation, 3 hr with marked Testosterone
T1 construct: skin fibroblasts, cells that contain different types of enzymes involved in the biosynthesis of steroids, were used; endogenous in cells; host or cells: skin fibroblasts
T1 sequence (P18405 1-259): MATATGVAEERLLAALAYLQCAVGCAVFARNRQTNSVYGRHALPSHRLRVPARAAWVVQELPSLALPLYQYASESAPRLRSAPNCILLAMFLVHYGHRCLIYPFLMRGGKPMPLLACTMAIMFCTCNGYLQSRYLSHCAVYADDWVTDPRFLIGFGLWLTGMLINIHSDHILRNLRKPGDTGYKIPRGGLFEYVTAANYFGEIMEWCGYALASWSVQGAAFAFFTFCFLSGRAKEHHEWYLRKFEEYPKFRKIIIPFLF
Procedure: (§1) In the experiment, skin fibroblasts, cells that contain different types of enzymes involved in the biosynthesis of steroids, were used. These cells represent a good system for the evaluation of the kinetic parameters of enzyme inhibitors such as 5-alpha reductase, delegated to steroid metabolism.
(§2) Fibroblasts were or were not incubated with 100µM of active Biochanin-A for 1 hour at 37°C before the addition of a known quantity of marked Testosterone, at the concentration of 1.5 micromoles. After 3 hr we proceeded with the extraction of the radioactive steroids. The amount of marked Testosterone and DHT are determined by TLC (Thin Layer Chromatography) to quantify 5-alpha reductase activity.

[2] = molecular target: T2, 5-alpha reductase activity II (Homo sapiens, UniProt P31213); test: 5-alpha reductase inhibition in skin fibroblasts (marked Testosterone to DHT, TLC), type II; format: cell-based; conditions: 100µM, 1 hour at 37°C preincubation, 3 hr with marked Testosterone
T2 construct: skin fibroblasts, cells that contain different types of enzymes involved in the biosynthesis of steroids, were used; endogenous in cells; host or cells: skin fibroblasts
T2 sequence (P31213 1-254): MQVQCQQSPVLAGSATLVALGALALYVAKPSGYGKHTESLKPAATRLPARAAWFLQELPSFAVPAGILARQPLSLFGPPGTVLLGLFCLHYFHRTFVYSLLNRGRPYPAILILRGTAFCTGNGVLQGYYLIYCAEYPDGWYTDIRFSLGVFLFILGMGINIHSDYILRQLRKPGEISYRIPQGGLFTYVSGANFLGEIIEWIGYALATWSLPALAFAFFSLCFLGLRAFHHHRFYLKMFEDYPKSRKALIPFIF
Procedure: as §1, §2

## COc1ccc(-c2coc3cc(O)cc(O)c3c2=O)cc1 [Biochanin-A]
[1]
  5-alpha reductase activity I compared to the negative control: -64%
[2]
  5-alpha reductase activity II compared to the negative control: -93%
